Reference: patent US20240376085A1 (Janssen Pharmaceutica NV, priority 2021, published 2024)
pIC50: −log10 of the molar value.

Key:
[1] = system: IL-17A-induced G-CSF production in human normal keratinocyte (NHK); experiment: NHK assay: IL-17A-induced G-CSF production in normal human keratinocytes; assay type: cell-based; settings: Homo sapiens, Keratinocyte, 24 h, IL-17A 5 ng/mL, average if tested more than once
Method in brief: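 Compound titrations are first mixed with recombinant human IL-17A for 1 h at room temperature. The mixture goes onto adult normal human keratinocytes (final IL-17A 5 ng/mL, 5% FBS, 0.2% DMSO) for 24 h at 37 °C. Secreted G-CSF is then measured by HTRF and IC50 fitted.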

IL-17A : IL-17RA binding = target: T1, IL-17A : IL-17RA binding (Homo sapiens, UniProt Q16552, K93Q); experiment: IL-17A(FLAG-tagged):IL-17RA(His-tagged) binding disruption Eu-HTRF assay, Protocol 1; settings: FLAG-IL-17A 2.5 nM at 2x final concentration; average if tested more than once
T1 construct: Name: IL-17A-Flag
T1 sequence (Q16552 with tags, fused parts or gaps K93Q): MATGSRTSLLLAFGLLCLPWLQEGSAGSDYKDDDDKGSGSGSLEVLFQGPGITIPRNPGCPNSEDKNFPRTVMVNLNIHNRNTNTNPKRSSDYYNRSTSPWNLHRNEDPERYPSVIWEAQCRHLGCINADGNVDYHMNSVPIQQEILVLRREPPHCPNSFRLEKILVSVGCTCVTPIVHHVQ
Method in brief: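 IC50 came from a one-site competition fit of the acceptor/donor (665/620 nm) HTRF ratio. His-tagged IL-17RA, Eu-anti-FLAG and D2-anti-His were added after a 1 h rt compound preincubation with FLAG-tagged IL-17A dimer in PBS/0.01% Triton X-100, followed by 2 h at rt before reading.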

| pIC50 (IL-17A : IL-17RA binding) | SMILES | pIC50 [1] |
| --- | --- | --- |
| < 7.00 | C[C@@H](NC(=O)CCC(F)(F)F)c1ccc2nc([C@@H](NC(=O)c3cnnn3CCC(F)F)C3CCC(F)(F)CC3)[nH]c2c1 [Example 74, N—((S)-(4,4-Difluorocyclohexyl)(6-((R)-1-(4,4,4-trifluorobutanamido)ethyl)-1H-benzo[d]imidazol-2-yl)methyl)-1-(3,3-difluoropropyl)-1H-1,2,3-triazole-5-carboxamide] | < 7.00 |
| < 7.00 | C[C@@H](NC(=O)CCC(F)(F)F)c1ccc2nc([C@@H](NC(=O)c3cn(CC(F)(F)F)nc3C3CC3)C3CCC(F)(F)CC3)[nH]c2c1 [Example 75, 3-Cyclopropyl-N—((S)-(4,4-difluorocyclohexyl)(6-((R)-1-(4,4,4-trifluorobutanamido)ethyl)-1H-benzo[d]imidazol-2-yl)methyl)-1-(2,2,2-trifluoroethyl)-1H-pyrazole-4-carboxamide] | < 7.00 |
| > 7.30 | [2H]C([2H])([2H])C([2H])([2H])n1nccc1C(=O)N[C@@H](COC(C)(C)C(F)(F)F)c1nc2ccc([C@H](NC(=O)CC3CC(F)(F)C3)C3CC3)cc2[nH]1 [Example 76, N—((R)-1-(6-((R)-Cyclopropyl(2-(3,3-difluorocyclobutyl)acetamido)methyl)-1H-benzo[d]imidazol-2-yl)-2-((1,1,1-trifluoro-2-methylpropan-2-yl)oxy)ethyl)-1-(ethyl-d5)-1H-pyrazole-5-carboxamide] | > 7.30 |
| 7.00 to 7.30 | Cc1nocc1C(=O)N[C@@H](COC(C)(C)C(F)(F)F)c1nc2ccc([C@H](NC(=O)CC3CC(F)(F)C3)C3CC3)cc2[nH]1 [Example 77, N—((R)-1-(6-((R)-Cyclopropyl(2-(3,3-difluorocyclobutyl)acetamido)methyl)-1H-benzo[d]imidazol-2-yl)-2-((1,1,1-trifluoro-2-methylpropan-2-yl)oxy)ethyl)-3-methylisoxazole-4-carboxamide] | 7.00 to 7.30 |
| < 7.00 | C[C@@H](NC(=O)CCC(F)(F)F)c1ccc2[nH]c([C@@H](NC(=O)c3cnn(CC45CC(C#N)(C4)C5)n3)C3CCC(F)(F)CC3)nc2c1 [Example 78, 2-((3-Cyanobicyclo[1.1.1]pentan-1-yl)methyl)-N—((S)-(4,4-difluorocyclohexyl)(5-((R)-1-(4,4,4-trifluorobutanamido)ethyl)-1H-benzo[d]imidazol-2-yl)methyl)-2H-1,2,3-triazole-4-carboxamide] | < 7.00 |
| < 7.00 | C[C@@H](NC(=O)CCC(F)(F)F)c1ccc2[nH]c([C@@H](NC(=O)c3cn(CC45CC(C#N)(C4)C5)nn3)C3CCC(F)(F)CC3)nc2c1 [Example 79, 1-((3-Cyanobicyclo[1.1.1]pentan-1-yl)methyl)-N—((S)-(4,4-difluorocyclohexyl)(5-((R)-1-(4,4,4-trifluorobutanamido)ethyl)-1H-benzo[d]imidazol-2-yl)methyl)-1H-1,2,3-triazole-4-carboxamide] | < 7.00 |
| < 7.00 | C[C@@H](NC(=O)CCC(F)(F)F)c1ccc2[nH]c([C@@H](NC(=O)c3cnnn3CC3CC3(F)F)C3CCC(F)(F)CC3)nc2c1 (stereo partly drawn) [Example 80, N—((S)-(4,4-Difluorocyclohexyl)(5-((R)-1-(4,4,4-trifluorobutanamido)ethyl)-1H-benzo[d]imidazol-2-yl)methyl)-1-((2,2-difluorocyclopropyl)methyl)-1H-1,2,3-triazole-5-carboxamide] | 7.00 to 7.30 |
| < 7.00 | C[C@@H](NC(=O)CCC(F)(F)F)c1ccc2[nH]c([C@@H](NC(=O)c3cnn(CC4CC4(F)F)n3)C3CCC(F)(F)CC3)nc2c1 (stereo partly drawn) [Example 81, N—((S)-(4,4-Difluorocyclohexyl)(5-((R)-1-(4,4,4-trifluorobutanamido)ethyl)-1H-benzo[d]imidazol-2-yl)methyl)-2-((2,2-difluorocyclopropyl)methyl)-2H-1,2,3-triazole-4-carboxamide] | < 7.00 |
| < 7.00 | C[C@@H](NC(=O)CCC(F)(F)F)c1ccc2[nH]c([C@@H](NC(=O)c3cnnn3CC3CC(F)(F)C3(F)F)C3CCC(F)(F)CC3)nc2c1 (stereo partly drawn) [Example 82, N—((S)-(4,4-Difluorocyclohexyl)(5-((R)-1-(4,4,4-trifluorobutanamido)ethyl)-1H-benzo[d]imidazol-2-yl)methyl)-1-((2,2,3,3-tetrafluorocyclobutyl)methyl)-1H-1,2,3-triazole-5-carboxamide] | < 7.00 |
| < 7.00 | C[C@@H](NC(=O)CCC(F)(F)F)c1ccc2[nH]c([C@@H](NC(=O)c3cnn(CC4CC(F)(F)C4(F)F)n3)C3CCC(F)(F)CC3)nc2c1 (stereo partly drawn) [Example 83, N—((S)-(4,4-Difluorocyclohexyl)(5-((R)-1-(4,4,4-trifluorobutanamido)ethyl)-1H-benzo[d]imidazol-2-yl)methyl)-2-((2,2,3,3-tetrafluorocyclobutyl)methyl)-2H-1,2,3-triazole-4-carboxamide] | < 7.00 |
| < 7.00 | C[C@@H](NC(=O)CCC(F)(F)F)c1ccc2[nH]c([C@@H](NC(=O)c3cn(CC4CC(F)(F)C4(F)F)nn3)C3CCC(F)(F)CC3)nc2c1 (stereo partly drawn) [Example 84, N—((S)-(4,4-Difluorocyclohexyl)(5-((R)-1-(4,4,4-trifluorobutanamido)ethyl)-1H-benzo[d]imidazol-2-yl)methyl)-1-((2,2,3,3-tetrafluorocyclobutyl)methyl)-1H-1,2,3-triazole-4-carboxamide] | < 7.00 |
| < 7.00 | CC(C(F)F)n1cc(C(=O)N[C@H](c2nc3cc([C@@H](C)NC(=O)CCC(F)(F)F)ccc3[nH]2)C2CCC(F)(F)CC2)nn1 (stereo partly drawn) [Example 85, N—((S)-(4,4-Difluorocyclohexyl)(5-((R)-1-(4,4,4-trifluorobutanamido)ethyl)-1H-benzo[d]imidazol-2-yl)methyl)-1-(1,1-difluoropropan-2-yl)-1H-1,2,3-triazole-4-carboxamide] | < 7.00 |
| < 7.00 | C[C@@H](NC(=O)CCC(F)(F)F)c1ccc2[nH]c([C@@H](NC(=O)c3cnnn3CC3CCC3(F)F)C3CCC(F)(F)CC3)nc2c1 (stereo partly drawn) [Example 86, 1-((2,2-Difluorocyclobutyl)methyl)-N—((S)-(4,4-difluorocyclohexyl)(5-((R)-1-(4,4,4-trifluorobutanamido)ethyl)-1H-benzo[d]imidazol-2-yl)methyl)-1H-1,2,3-triazole-5-carboxamide] | < 7.00 |
| < 7.00 | C[C@@H](NC(=O)CCC(F)(F)F)c1ccc2[nH]c([C@@H](NC(=O)c3cnn(CC4CCC4(F)F)n3)C3CCC(F)(F)CC3)nc2c1 (stereo partly drawn) [Example 87, 2-((2,2-Difluorocyclobutyl)methyl)-N—((S)-(4,4-difluorocyclohexyl)(5-((R)-1-(4,4,4-trifluorobutanamido)ethyl)-1H-benzo[d]imidazol-2-yl)methyl)-2H-1,2,3-triazole-4-carboxamide] | < 7.00 |
| < 7.00 | C[C@@H](NC(=O)CCC(F)(F)F)c1ccc2[nH]c([C@@H](NC(=O)c3cn(CC4CCC4)nc3C#N)C3CCC(F)(F)CC3)nc2c1 [Example 88, 3-Cyano-1-(cyclobutylmethyl)-N—((S)-(4,4-difluorocyclohexyl)(5-((R)-1-(4,4,4-trifluorobutanamido)ethyl)-1H-benzo[d]imidazol-2-yl)methyl)-1H-pyrazole-4-carboxamide] | < 7.00 |
| < 7.00 | C[C@@H](NC(=O)CCC(F)(F)F)c1ccc2[nH]c([C@@H](NC(=O)c3cn(CC4CCC4)nc3C(N)=O)C3CCC(F)(F)CC3)nc2c1 [Example 89, 1-(Cyclobutylmethyl)-N^4—((S)-(4,4-difluorocyclohexyl)(5-((R)-1-(4,4,4-trifluorobutanamido)ethyl)-1H-benzo[d]imidazol-2-yl)methyl)-1H-pyrazole-3,4-dicarboxamide] | < 7.00 |
| < 7.00 | C[C@@H](NC(=O)CCC(F)(F)F)c1ccc2[nH]c([C@@H](NC(=O)c3c(C#N)cnn3CC3CCC3)C3CCC(F)(F)CC3)nc2c1 [Example 90, 4-Cyano-1-(cyclobutylmethyl)-N—((S)-(4,4-difluorocyclohexyl)(5-((R)-1-(4,4,4-trifluorobutanamido)ethyl)-1H-benzo[d]imidazol-2-yl)methyl)-1H-pyrazole-5-carboxamide] | < 7.00 |
| < 7.00 | C[C@@H](NC(=O)CCC(F)(F)F)c1ccc2[nH]c([C@@H](NC(=O)c3nn(CC4CCC4)cc3C#N)C3CCC(F)(F)CC3)nc2c1 [Example 91, 4-Cyano-1-(cyclobutylmethyl)-N—((S)-(4,4-difluorocyclohexyl)(5-((R)-1-(4,4,4-trifluorobutanamido)ethyl)-1H-benzo[d]imidazol-2-yl)methyl)-1H-pyrazole-3-carboxamide] | < 7.00 |
| < 7.00 | CCn1nc(C(=O)N[C@H](c2nc3cc([C@@H](C)NC(=O)CCC(F)(F)F)ccc3[nH]2)C2CCC(F)(F)CC2)cc1C(F)(F)F [Example 92, N—((S)-(4,4-Difluorocyclohexyl)(5-((R)-1-(4,4,4-trifluorobutanamido)ethyl)-1H-benzo[d]imidazol-2-yl)methyl)-1-ethyl-5-(trifluoromethyl)-1H-pyrazole-3-carboxamide] | < 7.00 |
| < 7.00 | C[C@@H](NC(=O)CCC(F)(F)F)c1ccc2[nH]c([C@@H](NC(=O)c3cc(O)n(CCC(F)(F)F)n3)C3CCC(F)(F)CC3)nc2c1 [Example 93, N—((S)-(4,4-Difluorocyclohexyl)(5-((R)-1-(4,4,4-trifluorobutanamido)ethyl)-1H-benzo[d]imidazol-2-yl)methyl)-5-hydroxy-1-(3,3,3-trifluoropropyl)-1H-pyrazole-3-carboxamide] | < 7.00 |
